Data reported in patent EP1873155A1, “Inhibitors of the HIV integrase enzyme” (PFIZER INC., priority 2004, dated 2005).

test system: RF strain of HIV-1; assay: HIV-1 cell protection assay (XTT dye reduction); assay type: cell-based; settings: Human immunodeficiency virus 1, CEM-SS, 144 h
Experimental: Example 61: HIV-1 Cell Protection Assay
The antiviral activities of potential modulator compounds (test compounds) were determined in HIV-1 cell protection assays using the RF strain of HIV-1, CEM-SS cells, and the XTT dye reduction method (Weislow, O.S. et al., J. Natl. Cancer Inst. 81: 577-586 (1989)). Subject cells were infected with HIV-1 RF virus at an moi of 0.025 to 0.819 or mock infected with medium only and added at 2 x 10^4 cells per well into 96 well plates containing half-log dilutions of test compounds. Six days later, 50 µl of XTT solution (1 mg/ml XTT tetrazolium and […] phenazine methosulfate) were added to the wells and the plates were reincubated for four hours. Viability, as determined by the amount of XTT formazan produced, was quantified spectrophotometrically by absorbance at 450 nm.
Data from CPE assays were expressed as the percent of formazan produced in compound-treated cells compared to formazan produced in wells of uninfected, compound-free cells. […] The therapeutic index was calculated by dividing the cytotoxicity (CC50) by the antiviral activity (EC50).

SMILES | EC50 [nM]
CC(=O)N1CCN(C(=O)c2cn(Cc3ccc(F)cc3)c3cnc4c(=O)n(O)ccc4c23)CC1 [Example 27, 1-[(4-acetylpiperazin-1-yl)carbonyl]-3-(4-fluorobenzyl)-7-hydroxy-3,7-dihydro-6H-pyrrolo[2,3-c]-1,7-naphthyridin-6-one] | 19

same assay, conditions: Human immunodeficiency virus 1, CEM-SS, 144 h, CEM-SS cells infected with HIV-1 RF, six days, XTT formazan; read-out: EC50

SMILES | EC50 [nM]
O=C(CN1CCN(Cc2cn(Cc3ccc(F)cc3)c3cnc4c(=O)n(O)ccc4c23)CC1)N1CCCC1 [Example 15, 3-(4-fluorobenzyl)-7-hydroxy-1-{[4-(2-oxo-2-pyrrolidin-1-ylethyl)piperazin-1-yl]methyl}-3,7-dihydro-6H-pyrrolo[2,3-c]-1,7-naphthyridin-6-one] | 39
O=c1c2ncc3c(ccn3Cc3ccc(F)cc3)c2ccn1O [Example 1, 3-(4-Fluorobenzyl)-7-hydroxy-3,7-dihydro-6H-pyrrolo[2,3-c]-1,7-naphthyridin-6-one] | 0.4
CCN(Cc1ccc(C)cc1)Cc1cn(Cc2ccc(F)cc2)c2cnc3c(=O)n(O)ccc3c12 [Example 51, 1-{[ethyl(4-methylbenzyl)amino]methyl}-3-(4-fluorobenzyl)-7-hydroxy-3,7-dihydro-6H-pyrrolo[2,3-c]-1,7-naphthyridin-6-one] | 1.3
O=c1c2ncc3c(c(S(=O)(=O)NCCc4c[nH]c5ccccc45)cn3Cc3ccc(F)cc3)c2ccn1O [Example 21, 3-(4-fluorobenzyl)-7-hydroxy-N-[2-(1 H-indol-3-yl)ethyl]-6-oxo-6,7-dihydro-3H-pyrrolo[2,3-c]-1,7-naphthyridine-1-sulfonamide] | 480
O=C1CCCN1CC1(O)CCN(Cc2cn(Cc3ccc(F)cc3)c3cnc4c(=O)n(O)ccc4c23)CC1 [Example 18, 3-(4-fluorobenzyl)-7-hydroxy-1-({4-hydroxy-4-[(2-oxopyrrolidin-1-yl)methyl]piperidin-1-yl}methyl)-3,7-dihydro-6H-pyrrolo[2,3-c]-1,7-naphthyridin-6-one] | 67
O=c1c2ncc3c(c(CN4CCC(O)CC4)cn3Cc3ccc(F)cc3)c2ccn1O [Example 53, 3-(4-fluorobenzyl)-7-hydroxy-1-[(4-hydroxypiperidin-1-yl)methyl]-3,7-dihydro-6H-pyrrolo[2,3-c]-1,7-naphthyridin-6-one] | 13
CCCCCN(C)Cc1cn(Cc2ccc(F)cc2)c2cnc3c(=O)n(O)ccc3c12 [Example 11, 3-(4-fluorobenzyl)-7-hydroxy-1-{[methyl(pentyl)amino]methyl}-3,7-dihydro-6H-pyrrolo[2,3-c]-1,7-naphthyridin-6-one] | 3
O=C1NCCC12CCN(Cc1cn(Cc3ccc(F)cc3)c3cnc4c(=O)n(O)ccc4c13)CC2 [Example 13, 3-(4-fluorobenzyl)-7-hydroxy-1-[(1-oxo-2,8-diazaspiro[4.5]dec-8-yl)methyl]-3,7-dihydro-6H-pyrrolo[2,3-c]-1,7-naphthyridin-6-one] | 13
CCCCc1cc2c(ncc3c2ccn3Cc2ccc(F)cc2)c(=O)n1O [Example 46, 8-butyl-3-(4-fluorobenzyl)-7-hydroxy-3,7-dihydro-6H-pyrrolo[2,3-c]-1,7-naphthyridin-6-one] | 9.6
Cc1cc2c(ncc3c2ccn3Cc2ccc(F)cc2)c(=O)n1O [Example 47, 3-(4-fluorobenzyl)-7-hydroxy-8-methyl-3,7-dihydro-6H-pyrrolo[2,3-c]-1,7-naphthyridin-6-one] | 0.23
Cc1cccc(CNCc2cn(Cc3ccc(F)cc3)c3cnc4c(=O)n(O)ccc4c23)c1 [Example 41, 3-(4-fluorobenzyl)-7-hydroxy-1-{[(3-methylbenzyl)amino]methyl}-3,7-dihydro-6H-pyrrolo[2,3-c]-1,7-naphthyridin-6-one] | 3
CN(CCc1ccccn1)Cc1cn(Cc2ccc(F)cc2)c2cnc3c(=O)n(O)ccc3c12 [Example 16, 3-(4-fluorobenzyl)-7-hydroxy-1-{[methyl(2-pyridin-2-ylethyl)amino]methyl}-3,7-dihydro-6H-pyrrolo[2,3-c]-1,7-naphthyridin-6-one] | 7
